Test results from US5726012A, “Rapid, high capacity nucleic acid based assay” (E. I. du Pont de Nemours and Company, priority 1994, dated 1998).
In brackets after ≈: the same amount, converted by molar mass. Where two headings read alike, the source gives them in different places.

Key:
[1] = tested on: MT-2 cells; experiment: MTT dye reduction cytotoxicity assay on parallel uninfected MT-2 cultures; assay type: cell-based, human; conditions: uninfected MT-2 cells, three days culture; 50% reduction of absorbance at 570 nm in MTT assay; 4320 min
Protocol: (§1) Compounds to be evaluated for antiviral activity were dissolved in DMSO and diluted at least 1:50 in culture medium, to 2× the highest concentration to be tested. Further, three-fold serial dilutions of the compound in culture medium were performed directly in U bottom microtiter plates (Nunc). After compound dilution, MT-2 cells, which had been sub-cultured one day prior to infection, were added to a final concentration of 5×10^5 cells/ml (1×10^5 cells/well). Cells were incubated with compounds in a volume of 150 μl for 30 minutes at 37° C. in a CO2 incubator. For evaluation of antiviral potency, appropriate dilutions of HIV RF virus stock (50 μl) were added to culture wells containing the cells and the dilutions of the compounds to be tested. Eight wells per plate were left uninfected with 50 μl of medium added instead of virus, while eight wells were infected in the absence of any antiviral compound. For evaluation of compound toxicity, parallel plates were cultured without virus infection. After three days of culture at 37° C. in a humidified chamber inside a CO2 incubator, all but 25 μl of medium/well was removed from the HIV infected plates. […] Alkaline phosphatase activity was detected by addition of 100 μl of substrate detection buffer, consisting of: 0.2 mM 4-methylumbelliferyl phosphate (MUBP, JBL Scientific) in 2.5M diethanolamine pH 8.9 (JBL), 10 mM MgCl2, 5 mM Zinc acetate dihydrate, and 5 mM n-hydroxyethyl-ethylene-diamine-triaceticacid. The plates were incubated at 37° C. and the fluorescence produced measured in a microplate fluorometer (Dynateck) exciting at 365 nm and emitting at 450 nm. […]
(§2) In order to assess the potential cytotoxicity of compounds being evaluated for antiviral efficacy, an MTT dye reduction assay was performed at the end of the three day culture period on the parallel, uninfected, but compound treated cultures. […] Solubilized MTT dye product was quantitated using an ELISA microplate reader at 570 nm. […]

[2] = tested on: HIV RF (HIV-1 RNA) in MT-2 cells; experiment: HIV-1 RNA microtiter plate compound evaluation assay in HIV-1 infected MT-2 cells (gag capture/reporter probes); assay type: cell-based, HIV-1 (strain RF)
Protocol: Compounds to be evaluated for antiviral activity were dissolved in DMSO and diluted at least 1:50 in culture medium, to 2× the highest concentration to be tested. Further, three-fold serial dilutions of the compound in culture medium were performed directly in U bottom microtiter plates (Nunc). After compound dilution, MT-2 cells, which had been sub-cultured one day prior to infection, were added to a final concentration of 5×10^5 cells/ml (1×10^5 cells/well). Cells were incubated with compounds in a volume of 150 μl for 30 minutes at 37° C. in a CO2 incubator. For evaluation of antiviral potency, appropriate dilutions of HIV RF virus stock (50 μl) were added to culture wells containing the cells and the dilutions of the compounds to be tested. Eight wells per plate were left uninfected with 50 μl of medium added instead of virus, while eight wells were infected in the absence of any antiviral compound. For evaluation of compound toxicity, parallel plates were cultured without virus infection. After three days of culture at 37° C. in a humidified chamber inside a CO2 incubator, all but 25 μl of medium/well was removed from the HIV infected plates. 37 μl of 5M GED containing the biotinylated capture oligo was added to the remaining medium and settled cells in each well to a final concentration of 3M GED, 50 nM biotinylated capture oligo. Hybridization of the biotinylated capture oligo to HIV-1 RNA in the cell lysate was carried out in the same microplate well by sealing the plate and incubating for 16-20 hours in a 37° C. incubator. 124 μl of distilled water was added to each well to dilute the hybridization reaction three-fold, and 150 μl aliquots of this diluted mixture was transferred to streptavidin coated microtiter plate wells. The biotin oligo-RNA complex solution was incubated with the immobilized streptavidin for two hours at room temperature, after which the plates were washed six times with DuPont ELISA plate wash buffer (phosphate buffered saline (PBS)/0.05% Tween 20) with a Denley plate washer. A second hybridization was carried out by adding 120 μl of hybridization cocktail containing 4× standard saline citrate (0.15M NaCl, 0.015 sodium citrate) (SSC), 0.66% Triton X-100 and 6.66% deionized formamide, 1 mg/ml bovine serum albumin (BSA) and 5 nM `gag` AP reporter oligo to each well. After hybridization for one hour at 37° C., the plate was again washed six times in PBS/0.05% Tween 20. Alkaline phosphatase activity was detected by addition of 100 μl of substrate detection buffer, consisting of: 0.2 mM 4-methylumbelliferyl phosphate (MUBP, JBL Scientific) in 2.5M diethanolamine pH 8.9 (JBL), 10 mM MgCl2, 5 mM Zinc acetate dihydrate, and 5 mM n-hydroxyethyl-ethylene-diamine-triaceticacid. The plates were incubated at 37° C. and the fluorescence produced measured in a microplate fluorometer (Dynateck) exciting at 365 nm and emitting at 450 nm. A standard curve, prepared by adding known amounts of pDAB 72 in vitro RNA transcript to wells containing lysed, uninfected cells, was run on each microtiter plate.
In order to standardize the virus innoculum used in the evaluation of compounds for anti-vital efficacy, a dose response to ddC was determined at several different dilutions of each virus stock to be used. A dilution of each stock of HIV RF virus stock which gaven an IC90 for ddC of 0.2 ug/ml was selected and used in subsequent compound evaluation assays.
The microtiter plate compound evaluation assay described in Example 9 above was employed to evaluate the efficacy of cyclohexamide, di-deoxycytidine (ddC) and XJ104 (N,N'-bis[tert-butoxycarbonyl-valyl]-1,6-diphenyl-2S,5S-diamino-3R,4R-dihydroxy(triphenylphosphine adduct)-hexane) as described in WO91/18866, the disclosure of which is hereby incorporated by reference, utilizing the HIV-1 `gag` capture and reporter probes described in Example 2.
In the figures below the IC90 and TC50 are indicated. […]

[3] = MTT dye reduction cytotoxicity assay on parallel uninfected MT-2 cultures; assay type: cell-based, human; conditions: human
Protocol: as §1, §2

[4] = TC50 to IC90 ratio of greater than 3 regarded as antiviral efficacy

| Molecule | TC50 [1] [µg/mL] | IC90 in the RNA assay ([2]; HIV RF infected MT-2 cells, three days culture, 90% reduction of HIV-1 RNA, FIGS. 4-6) [µg/mL] | specific anti-viral efficacy (IC90 in RNA assay compared with TC50 in MTT assay) [2, 4] | CC50 at 72 h ([3]; uninfected MT-2 cells, three days culture, 50% reduction of absorbance at 570 nm in MTT assay, read-out: TC50) [µg/mL] | IC90 ([2]; Human immunodeficiency virus 1, MT2, 72 h, read-out: IC90 in the RNA assay) [µg/mL] | CC50 at 72 h ([3]; mt-2 cells) [µg/mL] | specific anti-viral efficacy (IC90 in RNA assay compared with TC50 in MTT assay) [2] | IC90 ([2]; Human immunodeficiency virus 1, MT2, 72 h, HIV RF infected MT-2 cells, three days culture, 90% reduction of HIV-1 RNA, FIGS. 4-6, read-out: IC90 in the RNA assay) [µg/mL] | IC90 ([2]; Human immunodeficiency virus 1, MT2, selected dilution of each HIV RF virus stock, read-out: IC90 for ddC used to standardize virus innoculum) [µg/mL] |
| --- | --- | --- | --- | --- | --- | --- | --- | --- | --- |
| N,N'-bis[tert-butoxycarbonyl-valyl]-1,6-diphenyl-2S,5S-diamino-3R,4R-dihydroxy(triphenylphosphine adduct)-hexane [XJ104] | 2 | 30 | no specific anti-viral efficacy is apparent |  |  |  |  |  |  |
| C[C@@H]1C[C@@H]([C@H](O)CC2CC(=O)NC(=O)C2)C(=O)[C@@H](C)C1 [cyclohexamide] |  |  | no specific anti-viral efficacy is apparent | 0.45 (≈ 1.6 µM) | 0.45 (≈ 1.6 µM) |  |  |  |  |
| Nc1ccn([C@H]2CC[C@@H](CO)O2)c(=O)n1 [ddC, di-deoxycytidine] |  |  |  |  |  | > 50 | displays anti-viral efficacy | 0.13 (≈ 0.615 µM) | 0.2 (≈ 0.947 µM) |
